Measurements as given in patent US11883383B2, “Pharmaceutically acceptable salts of [3-(4- {2-butyl-1-[4-(4-chloro-phenoxy)-phenyl]-1H-imidazol-4-yl} -phenoxy)-propyl]-diethyl-amine” (vTv Therapeutics LLC, priority 2018, dated 2024).

Test: Salt/co-crystal screening: 38 acids, eight solvent systems, solids analysed by XRPD
Type: physicochemical
Details: acid/freebase charge 1:1 unless label says 2:1, stirred at RT, else 5° C. slurry, anti-solvent addition or evaporation (footnote marks)
Procedure: XRPD analysis was performed with a Panalytical X'Pert^3 Powder XRPD on a Si zero-background holder. The 2θ position was calibrated against Panalytical Si reference standard disc.
A total of 320 salt/co-crystal screening experiments were conducted using 38 acids (two molar ratios for HCl and HBr) and eight solvent systems. Specifically, freebase stock solutions of ˜100 mg/mL were first prepared in each solvent system. For each experiment, 0.2 mL stock solution and the corresponding acids were mixed in a molar charge ratio of 1:1 (acid/freebase, 2:1 for HCl/freebase and HBr/freebase as well), and then stirred at RT. After stirring for 3-5 days, if precipitation was observed, the precipitate was isolated. It no precipitation, the clear solutions were first transferred to slurry at 5° C. to introduce precipitation. Solutions without any precipitation were further subjected to anti-solvent addition (for solvents in column B/D, 0.5 mL hexane was added; for solvents in column G/H, 0.5 mL water was added; for solvent in column F, 0.5 mL n-heptane was added). If still no precipitation, the final clear solutions were transferred to evaporation at RT to induce precipitation. All solids isolated were vacuum dried at RT for 2 hrs before XRPD analysis.

Solid obtained in salt screening (XRPD), solvent D Acetone/Hexane (1:2, v/v)	Solid obtained in salt screening (XRPD), solvent H Dioxane/H2O (9:1, v/v)	Solid obtained in salt screening (XRPD), solvent A Ethanol	Solid obtained in salt screening (XRPD), solvent B Ethyl acetate/Hexane (1:2, v/v)	Solid obtained in salt screening (XRPD), solvent G Methanol/H2O (19:1, v/v)	Solid obtained in salt screening (XRPD), solvent F Methyl tertbutyl ether	Solid obtained in salt screening (XRPD), solvent C THF	Solid obtained in salt screening (XRPD), solvent E Toluene	SMILES
gel	amorphous*	amorphous*	–	amorphous*	–	gel	gel	O=C(O)C[C@H](O)C(=O)O [L-malic acid]
gel	gel*	gel*	–	gel*	amorphous	gel	gel*	CS(=O)(=O)O [Methane sulfonic acid]
amorphous*	amorphous*	gel*	amorphous*	amorphous*	gel*	gel*	gel*	O=C(O)CC(=O)O [Malonic acid]
gel	amorphous*	amorphous*	gel*	amorphous*	gel	gel	gel	O=C(O)[C@H](O)c1ccccc1 [R-mandelic acid]
–	–	–	–	gel*	–	–	–	O=C(O)C(=O)O [Oxalic acid]
–	amorphous^&	–	–	–	FB Type A*	–	–	CCCCCCCCCCCCCCCCCC(=O)O [Stearic acid]
gel*	gel*	gel*	gel*	FB Type A^&	gel*	gel*	gel*	CCCCCCCCCCCCCCCC(=O)O [Palmitic acid]
gel	amorphous*	amorphous*	gel*	amorphous*	gel	gel	gel*	C[C@H](O)C(=O)O [L-lactic acid]

More lines, now with the values behind:

SMILES	Solid obtained in salt screening (XRPD), solvent D Acetone/Hexane (1:2, v/v)	Solid obtained in salt screening (XRPD), solvent H Dioxane/H2O (9:1, v/v)	Solid obtained in salt screening (XRPD), solvent A Ethanol	Solid obtained in salt screening (XRPD), solvent B Ethyl acetate/Hexane (1:2, v/v)	Solid obtained in salt screening (XRPD), solvent G Methanol/H2O (19:1, v/v)	Solid obtained in salt screening (XRPD), solvent F Methyl tertbutyl ether	Solid obtained in salt screening (XRPD), solvent C THF	Solid obtained in salt screening (XRPD), solvent E Toluene
CCCCCC(=O)O [Hexanoic acid]	gel*	FB Type A*	gel	gel*	amorphous*	FB Type B^&	gel	gel
O=C(O)CC(O)(CC(=O)O)C(=O)O [Citric acid]	–	amorphous*	gel*	–	amorphous*	amorphous	amorphous^#	amorphous
O=C(O)/C=C/C(=O)O [Fumaric acid]	–	amorphous*	gel*	–	amorphous*	–	gel*	–
N[C@@H](CCC(=O)O)C(=O)O [Glutamic acid]	–	glutamic acid	glutamic acid	–	–	glutamic acid	–	–
Br.CCCCc1nc(-c2ccc(OCCCN(CC)CC)cc2)cn1-c1ccc(Oc2ccc(Cl)cc2)cc1 [HBr (1:1)]	–	gel*	–	–	–	–	–	–
Nc1ccc(C(=O)O)c(O)c1 [4-Aminosalicylic acid]	gel	gel	gel*	–	–	–	gel	gel
O=C(O)CCCC(=O)O [Glutaric acid]	amorphous*	amorphous*	gel*	amorphous*	amorphous*	amorphous^&	gel*	gel*
O=C(O)CCCCC(=O)O [Adipic acid]	FB Type B*	amorphous*	gel*	amorphous*	amorphous*	amorphous*	gel*	gel*
O=C(O)c1ccc2ccccc2c1O [1-hydroxy-2-naphthoic acid]	gel	amorphous*	amorphous*	gel*	amorphous*	gel	gel	gel
